Consider 3 substances from US11344634B2, “Activity based probe and uses thereof for imaging” (Yissum Research Development Company of the Hebrew …, priority 2016, dated 2022).

In series [1] the target is T1, Recombinant human Cathepsin B (Homo sapiens, UniProt P07858).
T1 construct: made in house
Description: Recombinant cathepsin labeling, competition assay, iodinated probes. Particulars: probe 2 hour, then GB123 30 minutes. The series is classed as biochemical. The protocol: (§1) Recombinant cathepsin labeling, competition assay: Recombinant human Cathepsin L (0.5 μg), Cathepsin B (0.5 μg) were incubated the indicated concentrations of targeted or control iodinated activity based probes (CT-ABP) in reaction buffer (50 mM acetate, 2 mM DTT and 5 mM MgCl2, pH 5.5) for 120 minutes at 37° C. After probe incubation, residual cathepsin activity was labeled with GB123 for 30 minutes. The reaction was stopped by addition of sample buffer ×4 (40% glycerol, 0.2 M Tris/HCl, pH 6.8, 20% beta-mercaptoethanol, 12% SDS and 0.4 mg/ml bromophenol blue). Samples were then boiled, separated on a 12.5% SDS gel and scanned for fluorescence by a Typhoon scanner FLA 9500 at excitation/emission wavelengths of 645/670 nm.
(§2) The biochemical evaluation of the new probes started with evaluation for their ability to bind recombinant human cathepsins B or Cathepsin L. Recombinant human cathepsins B was incubated with increasing concentrations of the probes for 2 hour. Residual activity was detected by a fluorescently labeled cathepsin ABP GB 123 that was added to samples for 30 minutes at r.t. […] Next, residual cathepsins activity was labeled by GB123 1 μM during 2 hours. Cell lysates were separated on SDS-PAGE followed by scanning the gel for fluorescence to visualize labeling of residual cathepsins activity by GB123 (FIGS. 11C and 11F).
(§3) Recombinant human cathepsins B was incubated with increasing concentrations of the probes for 2 hour. Residual activity was detected by a fluorescently labeled cathepsin ABP that was added to samples for 30 minutes at r.t. The free probe was separated from the enzyme-probe complex by SDS PAGE, the detection of the probe-enzyme complex was done by a fluorescent scanning of the gel at Cy5 fluorescence, FIG. 12. […] To assure that the binding is dependent on protease activity, a control were performed HG87, HG94 and HG97 lacking the reactive moiety. […] Evaluation of I-CT-ABPs in intact cells. […] Next, residual cathepsins activity was labeled by GB123 1 μM during 2 hours. Cell lysates were separated on SDS-PAGE followed by scanning the gel for fluorescence at: 645/670 nm to visualize labeling of residual cathepsins activity by GB123 (FIG. 12E). […] Recombinant human cathepsins B was incubated with increasing concentrations of the Cy5 labelled probes for 2 hour. The free probe was separated from the enzyme-probe complex by SDS PAGE, the detection of the probe-enzyme complex was done by a fluorescent scanning of the gel at Cy5 fluorescence. […] The binding of the all the Cy5 labelled probes occur in an activity-dependent manner. Direct labeling in intact cells. The assay was carried out by incubation of NIH-3T3 cells with Cy5 labelled iodine tagged probes for 24 hours. Cell lysates were separated on SDS-PAGE followed by scanning the gel for fluorescence at: 645/670 nm to visualize labeling of residual cathepsins activity by GB123. […] For the PEGylated I-CT-ABP HG93 and HG32 also observed that recombinant cathepsin activity and cell permeability, it's difficult to quantify the selective inhibition due to enhanced permeation and retention (EPR) effect.

Series [2] concerns the target T2, Recombinant human Cathepsin L (Homo sapiens, UniProt P07711).
T2 construct: made in house
The series is described as above. It counts as biochemical. Particulars: probe 2 hour, then GB123 30 minutes. On the procedure:
as §1, §2, §3

The next series concerns NIH-3T3 cells. Description: In vitro cytotoxicity, methylene blue assay, I-CT-ABPs. The series is classed as cell-based, mouse. Particulars: NIH-3T3, 10 μM, 48 hours. On the procedure:
In vitro Cytotoxicity Assays. Methylene Blue assays were performed in 96-well plates; NIH-3T3 cells (5×10^3 cells/well) were seeded in a 96-well plate one day before treatment. Cells were treated with indicated concentrations of targeted IABNs and non-targeted nanomaterials that were pre-dissolved in 0.1% DMSO in the culture medium. Cells were incubated for 24 h and 48 h and cells were fixed with 2.5% glutaraldehyde incubation for 10 min. Cells were washed with water and borate buffer (0.1M, pH=8.5), Cell number was determined by staining cells with the addition of 100 μl per well of 1% Methylene Blue in borate buffer, followed by incubation at room temperature for at least 1 hour. The stain was aspirated and the plates rinsed by immersion in water, followed by immersion in deionized water. The plates were air-dried and then the stain was released from cells by the addition of 200 μl/well 0.1 N HCl solutions. After 1 hour incubation at 37° C., the absorbance of each […] at 620 nm was determined on a Cytation 3 microplate reader.
Cytotoxicity study of the I-CT-ABPs, the toxic response to the systematically varied physico-chemical properties of successive PAMAM dendrimers. In vitro cytotoxicity of I-CT-ABPs to NIH-3T3 cell lines was investigated. Viability assay was performed for assessment of the cytotoxicity of each I-CT-ABP to the NIH-3T3 cell lines using the methylene blue method.

T2 sequence (P07711 114-333): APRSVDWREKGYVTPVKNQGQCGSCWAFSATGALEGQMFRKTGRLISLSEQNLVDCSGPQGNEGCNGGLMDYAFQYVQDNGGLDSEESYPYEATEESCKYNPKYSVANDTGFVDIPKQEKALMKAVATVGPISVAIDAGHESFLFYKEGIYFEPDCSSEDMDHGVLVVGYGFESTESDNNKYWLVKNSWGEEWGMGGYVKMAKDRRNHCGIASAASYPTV

In the case of (IPA)16(NH2)16-G3 [HG87], the “binding to recombinant cathepsin B, competitive assay” value (“binding to recombinant cathepsin B” for short) in series [1] is recorded as “no inhibition was detected”. Besides, the “binding to recombinant cathepsin L, competitive assay” value (“binding to recombinant cathepsin L” for short) in series [2] was “no inhibition was detected”. Further, in the series with NIH-3T3 cells, the “toxicity (viability assay)” value is listed as “slight toxicity”.

Consider (IPA)16(PEG-750)16-G3 [HG97], for which the “binding to recombinant cathepsin B” value in series [1] was “no inhibition was detected”. Moreover, the “binding to recombinant cathepsin L” value in series [2] is reported as “no inhibition was detected”.

For (IPA)16(PEG-4)16-G3 [HG94], in series [1], the “binding to recombinant cathepsin B” value is “no inhibition was detected”. In addition, in series [2], the “binding to recombinant cathepsin L” value was “no inhibition was detected”.
